Drawing on PubChem BioAssay AID276 (DTP/NCI, 2004), this text covers T/C for 15 compounds.

The structures appear in SMILES notation. Several values for one entry are separate records, joined by “and”; a condition that tells them apart may be missing. Equal values may be shown once. Inconclusive results and toxic doses are left out.

The subject of the test is B6C3F1 mice, Lewis lung carcinoma iv, survival T/C. Put plainly: NCI In Vivo Anticancer Drug Screen. Data for tumor model Lewis Lung Carcinoma (intravenous) in B6C3F1 mice. The note with it: endpoint: median survival time, higher = longer survival. The method in brief:
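Mice carrying transplanted tumors received test compound; survival in the treated group was divided by that of the vehicle-treated control group to give the T/C value.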

The mark [1] stands for this setting: dose: 6.25 mg/kg/injection, schedule: Q01DX009 (ip), vehicle: saline.
[2] abbreviates: dose: 12.5 mg/kg/injection, schedule: Q01DX009 (ip), vehicle: saline.
Where [3] appears, read: dose: 25.0 mg/kg/injection, schedule: Q01DX009 (ip), vehicle: saline.
Setting [4] is: dose: 50.0 mg/kg/injection, schedule: Q01DX009 (ip), vehicle: saline.

As for `Cc1cn(C2CC(F)C(CO)O2)c(=O)[nH]c1=O` (stereo unspecified), the T/C is 106 % of control (dose: 12.5 mg/kg/injection, schedule: Q01DX009 (ip), vehicle: suspension in saline); 103 % of control (dose: 25.0 mg/kg/injection, schedule: Q01DX009 (ip), vehicle: suspension in saline); 106 % of control (dose: 50.0 mg/kg/injection, schedule: Q01DX009 (ip), vehicle: suspension in saline); 100 % of control (dose: 100.0 mg/kg/injection, schedule: Q01DX009 (ip), vehicle: suspension in saline); 121 % of control (dose: 200.0 mg/kg/injection, schedule: Q01DX009 (ip), vehicle: suspension in saline); 122 % of control (dose: 400.0 mg/kg/injection, schedule: Q01DX009 (ip), vehicle: suspension in saline).
`COC1CC(C)C(OC)C2=CC(=O)C=C(NC(=O)/C(C)=C/C=C\C(C)C(OC(N)=O)/C(C)=C\C(C)C1OC)C2=O` (stereo unspecified): the T/C reads like this: (dose: 5.0 mg/kg/injection, schedule: Q01DX009 (ip), vehicle: saline + Tween-80 + alcohol) 99 % of control; (dose: 10.0 mg/kg/injection, schedule: Q01DX009 (ip), vehicle: saline + Tween-80 + alcohol) 112 % of control.
Turning to `NC(=S)N/N=C/c1ccc(OC(=O)COc2ccc(Cl)cc2)cn1`, the T/C (dose: 12.5 mg/kg/injection, schedule: Q01DX009 (ip), vehicle: saline with Tween-80) is 99 % of control and 100 % of control; the T/C (dose: 25.0 mg/kg/injection, schedule: Q01DX009 (ip), vehicle: saline with Tween-80) was 92 % of control and 99 % of control; the T/C (dose: 50.0 mg/kg/injection, schedule: Q01DX009 (ip), vehicle: saline with Tween-80) is 95 % of control and 101 % of control; the T/C (dose: 100.0 mg/kg/injection, schedule: Q01DX009 (ip), vehicle: saline with Tween-80) is 92 % of control and 107 % of control; the T/C (dose: 200.0 mg/kg/injection, schedule: Q01DX009 (ip), vehicle: saline with Tween-80) was 116 % of control.
Regarding `NC(=O)c1c[se]c(C2OC(CO)C(O)C2O)n1` (stereo unspecified), the T/C is, setting by setting: (dose: 0.75 mg/kg/injection, schedule: Q01DX009 (ip), vehicle: water) 107 % of control; (dose: 1.5 mg/kg/injection, schedule: Q01DX009 (ip), vehicle: water) 110 % of control; (dose: 3.0 mg/kg/injection, schedule: Q01DX009 (ip), vehicle: water) 152 % of control and 153 % of control; (dose: 6.0 mg/kg/injection, schedule: Q01DX009 (ip), vehicle: water) 297 % of control; (dose: 12.0 mg/kg/injection, schedule: Q01DX009 (ip), vehicle: water) 297 % of control and 355 % of control; (dose: 13.0 mg/kg/injection, schedule: Q01DX009 (ip), vehicle: water) 315 % of control. Also, the T/C (dose: 24.0 mg/kg/injection, schedule: Q01DX009 (ip), vehicle: water) is 297 % of control; the T/C (dose: 25.0 mg/kg/injection, schedule: Q01DX009 (ip), vehicle: water) is 355 % of control; the T/C (dose: 33.0 mg/kg/injection, schedule: Q01DX009 (ip), vehicle: water) is 94 % of control; the T/C (dose: 75.0 mg/kg/injection, schedule: Q01DX009 (ip), vehicle: water) was 315 % of control; the T/C (dose: 100.0 mg/kg/injection, schedule: Q01DX009 (ip), vehicle: water) is 120 % of control.
As for `COc1cc2c(c(OC)c1OC)-c1ccc(OC)c(=O)cc1[C@@H](NC(=O)CCl)CC2`, the T/C (dose: 0.03 mg/kg/injection, schedule: Q01DX009 (ip), vehicle: saline with Tween-80) was 114 % of control; the T/C (dose: 0.06 mg/kg/injection, schedule: Q01DX009 (ip), vehicle: saline with Tween-80) is 102 % of control; the T/C (dose: 0.12 mg/kg/injection, schedule: Q01DX009 (ip), vehicle: saline with Tween-80) was 114 % of control; the T/C (dose: 0.25 mg/kg/injection, schedule: Q01DX009 (ip), vehicle: saline with Tween-80) was 106 % of control.
Take `COC(=O)Nc1cn2ccc(Sc3ccccc3)cc2n1`: the T/C is, setting by setting: (dose: 50.0 mg/kg/injection, schedule: Q01DX009 (ip), vehicle: Klucel (hydroxypropylcellulose) (HPC)) 101 % of control; (dose: 100.0 mg/kg/injection, schedule: Q01DX009 (ip), vehicle: Klucel (hydroxypropylcellulose) (HPC)) 106 % of control; (dose: 200.0 mg/kg/injection, schedule: Q01DX009 (ip), vehicle: Klucel (hydroxypropylcellulose) (HPC)) 101 % of control.
Regarding `COC12C(COC(=O)NCCO)C3=C(C(=O)C(C)=C(N)C3=O)N1CC1NC12` (stereo unspecified), the T/C reads like this: (dose: 3.12 mg/kg/injection, schedule: Q01DX009 (ip), vehicle: Klucel (hydroxypropylcellulose) (HPC)) 111 % of control; (dose: 6.25 mg/kg/injection, schedule: Q01DX009 (ip), vehicle: Klucel (hydroxypropylcellulose) (HPC)) 102 % of control.
Consider `O=C(O)C(O)C(O)C1[O][Sb][O]C1C(=O)O` (stereo unspecified), for which the T/C is, setting by setting: under setting [1], 103 % of control; under setting [2], 108 % of control; under setting [3], 98 % of control; under setting [4], 108 % of control.
With `O=c1ncccn1[C@@H]1O[C@H](CO)[C@H](O)C1O` (stereo partly specified), the T/C by setting is: under setting [3], 92 % of control and 96 % of control; under setting [4], 88 % of control and 101 % of control; (dose: 100.0 mg/kg/injection, schedule: Q01DX009 (ip), vehicle: saline) 105 % of control; (dose: 200.0 mg/kg/injection, schedule: Q01DX009 (ip), vehicle: saline) 108 % of control and 119 % of control; (dose: 400.0 mg/kg/injection, schedule: Q01DX009 (ip), vehicle: saline) 97 % of control and 116 % of control.
`COc1ccc(C(=O)C(CN(C)C)CN(C)C)cc1`: the T/C is, setting by setting: (dose: 1.56 mg/kg/injection, schedule: Q01DX009 (ip), vehicle: saline) 96 % of control; (dose: 3.12 mg/kg/injection, schedule: Q01DX009 (ip), vehicle: saline) 102 % of control; under setting [1], 102 % of control; under setting [2], 105 % of control; under setting [3], 105 % of control.
In the case of `CCCCCCCCCCCCCCC/C([O-])=N/[N+](C)(C)CC(C)O` (stereo unspecified), the T/C was 91 % of control (dose: 25.0 mg/kg/injection, schedule: Q01DX001 (ip), vehicle: saline); 88 % of control (dose: 50.0 mg/kg/injection, schedule: Q01DX001 (ip), vehicle: saline); 87 % of control (dose: 100.0 mg/kg/injection, schedule: Q01DX001 (ip), vehicle: saline); 95 % of control (dose: 200.0 mg/kg/injection, schedule: Q01DX001 (ip), vehicle: saline).
For the compound `COc1ccc2c(c1)CCn1c(C)c(COC(=O)NC(C)C)c(COC(=O)NC(C)C)c1-2`, the T/C by setting is: (dose: 3.12 mg/kg/injection, schedule: Q01DX009 (ip), vehicle: distilled water + Tween-80) 102 % of control; (dose: 6.25 mg/kg/injection, schedule: Q01DX009 (ip), vehicle: distilled water + Tween-80) 99 % of control; (dose: 12.5 mg/kg/injection, schedule: Q01DX009 (ip), vehicle: distilled water + Tween-80) 87 % of control.
In the case of `c1ccc([P+](c2ccccc2)(c2ccccc2)c2ccccc2)cc1`, the T/C (dose: 0.09 mg/kg/injection, schedule: Q01DX009 (ip), vehicle: saline) was 112 % of control; the T/C (dose: 0.18 mg/kg/injection, schedule: Q01DX009 (ip), vehicle: saline) is 112 % of control; the T/C (dose: 0.37 mg/kg/injection, schedule: Q01DX009 (ip), vehicle: saline) is 107 % of control; the T/C (dose: 0.75 mg/kg/injection, schedule: Q01DX009 (ip), vehicle: saline) is 105 % of control and 112 % of control; the T/C (dose: 1.5 mg/kg/injection, schedule: Q01DX009 (ip), vehicle: saline) is 103 % of control and 111 % of control; the T/C (dose: 3.0 mg/kg/injection, schedule: Q01DX009 (ip), vehicle: saline) is 95 % of control and 124 % of control. Also, the T/C (dose: 6.0 mg/kg/injection, schedule: Q01DX009 (ip), vehicle: saline) was 94 % of control.
Take `NCCCC(N)(C(=O)O)C(F)F` (stereo unspecified): the T/C reads like this: (dose: 50.0 mg/kg/injection, schedule: Q01DX009 (ip), vehicle: distilled water + alcohol) 100 % of control; (dose: 100.0 mg/kg/injection, schedule: Q01DX009 (ip), vehicle: distilled water + alcohol) 104 % of control; (dose: 200.0 mg/kg/injection, schedule: Q01DX009 (ip), vehicle: distilled water + alcohol) 105 % of control; (dose: 400.0 mg/kg/injection, schedule: Q01DX009 (ip), vehicle: distilled water + alcohol) 103 % of control; (dose: 800.0 mg/kg/injection, schedule: Q01DX009 (ip), vehicle: distilled water + alcohol) 96 % of control.
In the case of `CCOC(=O)CNC(=O)CCCCSc1ncnc2nc[nH]c12`, the T/C was 101 % of control (dose: 40.0 mg/kg/injection, schedule: Q01DX009 (ip), vehicle: Klucel (hydroxypropylcellulose) (HPC)); 112 % of control (dose: 80.0 mg/kg/injection, schedule: Q01DX009 (ip), vehicle: Klucel (hydroxypropylcellulose) (HPC)); 110 % of control (dose: 160.0 mg/kg/injection, schedule: Q01DX009 (ip), vehicle: Klucel (hydroxypropylcellulose) (HPC)); 95 % of control (dose: 320.0 mg/kg/injection, schedule: Q01DX009 (ip), vehicle: Klucel (hydroxypropylcellulose) (HPC)); 111 % of control (dose: 640.0 mg/kg/injection, schedule: Q01DX009 (ip), vehicle: Klucel (hydroxypropylcellulose) (HPC)).
